Key:
[1] = system: A/Kanagawa/IC18141/2019, influenza A(H3N2) virus carrying polymerase acidic I38T substitution; format: cell-based
[2] = system: mutant influenza A(H3N2) viruses encoding the polymerase acidic I38T substitution; details: human, in vivo
[3] = molecular target: neuraminidase (NA) of A/Kanagawa/IC18141/2019 (Influenza A virus (H3N2), UniProt A0A193ACB1); format: biochemical

Row | Compound | IC50 [1] [nM] | fold higher IC50 value compared with the median IC50 of A(H3N2) viruses of the 2018–19 season [1] [fold] | time to fever resolution after administration [2] | IC50 [3] [nM] | NA inhibitor susceptibility by WHO criteria (fold change in IC50 vs median of same-season isolates) [3]
1 | O=C1c2c(O)c(=O)ccn2N([C@@H]2c3ccccc3SCc3c2ccc(F)c3F)[C@@H]2COCCN12 [Baloxavir, baloxavir acid] | 236 | 186 | within a half day | – | –
2 | CCC(CC)[C@H](NC(C)=O)[C@@H]1[C@H](O)[C@@H](C(=O)O)C[C@H]1N=C(N)N [Peramivir, peramivir] | – | – | – | 0.18 | 0.18 (NI) (key: NI: normal (<10-fold increase); reduced (10–100-fold increase); highly reduced (>100-fold increase))

From article PMC6810216, “Human-to-Human Transmission of Influenza A(H3N2) Virus with Reduced Susceptibility to Baloxavir, Japan, February 2019” (Emerging Infectious Diseases, 2019)
